# Data reported in US3971814A, “Benzo(b)thiophene derivatives” (priority 1972, dated 1976).
# Key:
# [1] = tested on: Granulation Tissue; experiment: Cotton-pellet test (granulation tissue); type: in vivo; details: rat, sc., section K; for increase in body weight %: control 27
# [2] = in vivo; details: mouse
# [3] = tested on: Granulation Tissue; experiment: Cotton-pellet test (granulation tissue); type: in vivo; details: rat, sc., 2×75,0 mg/kg daily, section K
# Description: test animals are male rats (SIV 50) weighing 110 to 200 g. All test animals are kept fasting for 16 to 18 hours prior to the implantation of the pellets; after that food and water were available ad libitum. Each dose level of the chemical tested was administered to 12 animals. The substances were suspended in 1% Tragacanth mucilage and administered intragastrically by means of a stomach tube. The substances to be investigated and the control suspensions are administered once on the operating day following operation, and twice a day on the following 6 days (at intervals of 6 to 8 hours). The type of application and volume of liquid corresponded to that under B.
# Under light ether anesthesia 4 sterile cotton pellets were implanted under the skin on the back of the animal. The weight of one pellet was 50 mg ± 0.5 mg. After 7 days treatment, the animals were sacrificed, the pellets removed with the granulation tissue, weighed and then dried in the incubator at +80°C to constant weight. The average dry weight of the granulation tissue of the control group was rated 100%, and deviations of the mean weights of the group treated with the test substance determined as a percentage thereof.
# The weight of the animals is measured daily throughout the tests, and the percental increase determined. At the end of some tests, moreover, the suprarenal glands are removed and their weight determined.
# [4] = tested on: Yeast Edema of the Rat Paw; experiment: Yeast edema and determination of pain threshold in the rat paw; type: in vivo; details: 3 h, sc., 150 mg/kg
# Description: test animals are male rats (SIV 50) weighing 100 to 180 g. […] 10 animals belonged to each dosage group.
# The volume of the paw is determined according to the method described by Enders and Heidbrink, the pain threshold according to that described by Randall and Selitto (Arch. Int. Pharmacodyn CXI: 409, 1957).
# Following initial measurements, […] of a 5% suspension of dried yeast is injected subplantarly into the right paw and the test substances are administered immediately. The blank control group is given Tragacanth mucilage only. After 3 hours the pain threshold and the volume of the paw are determined again.
# The mean value of the increase in paw volume of the animals of the blank control after 3 hours is rated 100%, and the mean value of the increase in paw volume of the animals of the substance groups expressed as a percentage thereof. Pain threshold after 3 hours reflects the increase or decrease in percent, compared to the initial value.
# In order to be able to calculate the ED50 according to the method by Lichtfield and Wilcoxon (J.P.E.T. 96:99, 1949), those animals in a dose group are considered protected when the paw swelling was at least 40% less than that of the blank control.
smiles,measurement,setting,value
CCN(CC)CCNC(=N)c1sc2ccccc2c1O [Example 30],granulation tissue % dry weight,"[1]; 2×50,0 mg/kg daily",82%
same,increase in body weight %,"[1]; 2×50,0 mg/kg daily",27%
same,increase in body weight %,"[1]; 2×75,0 mg/kg daily",27%
same,LD50,[2]; po,~1000 mg/kg
same,LD50,[2]; sc,~1000 mg/kg
same,granulation tissue % dry weight,[3],68%
same,change in vivo at 150 mg/kg,[4]; section K (control -26),18%
same,response vs control in vivo at 150 mg/kg,"[4]; section K, read-out: volume (paw, control = 100%)",53%
